Laboratory results reported in ChEMBL document CHEMBL1201862, “PubChem BioAssay data set” (2004).
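Five compound concentrations were applied to cells in 96-well plates for 48 hours; endpoints were derived by simple linear interpolation of the resulting dose-response curve. GI50 is the concentration that inhibits growth by half.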 Activity calls are given as the source filed them. No stated cut-off is given here; in the data, active = GI50 up to about 1.1 µM and inactive = higher.

Experiments:
Assay in all cases: NCI-60 cell line screen, 48 h
IGROV-1 = test system: IGROV-1
SK-MEL-5 = test system: SK-MEL-5
SN12C = test system: SN12C
SF-295 = test system: SF-295
NCI-H522 = test system: NCI-H522
UACC-257 = test system: UACC-257
CAKI-1 = test system: CAKI-1
DU-145 = test system: DU-145
RXF 393 = test system: RXF 393
HT-29 = test system: HT-29
NCI-H23 = test system: NCI-H23
UACC-62 = test system: UACC-62
SR = test system: SR
SW-620 = test system: SW-620
OVCAR-5 = test system: OVCAR-5
T47D = test system: T47D
SK-MEL-2 = test system: SK-MEL-2
ACHN = test system: ACHN
NCI-H226 = test system: NCI-H226
HCT-116 = test system: HCT-116
EKVX = test system: EKVX
RPMI-8226 = test system: RPMI-8226
UO-31 = test system: UO-31
KM12 = test system: KM12
PC-3 = test system: PC-3
K562 = test system: K562
SNB-19 = test system: SNB-19
OVCAR-4 = test system: OVCAR-4
U-251 = test system: U-251
MDA-MB-231 = test system: MDA-MB-231
HCT-15 = test system: HCT-15
786-0 = test system: 786-0
MDA-MB-435 = test system: MDA-MB-435
SNB-75 = test system: SNB-75
BT-549 = test system: BT-549
A498 = test system: A498
NCI/ADR-RES = test system: NCI/ADR-RES
MOLT-4 = test system: MOLT-4
HL-60 = test system: HL-60
OVCAR-3 = test system: OVCAR-3
LOX IMVI = test system: LOX IMVI
COLO 205 = test system: COLO 205
TK-10 = test system: TK-10
OVCAR-8 = test system: OVCAR-8
Malme-3M = test system: Malme-3M
SK-MEL-28 = test system: SK-MEL-28
HCC 2998 = test system: HCC 2998
HOP-62 = test system: HOP-62
MCF7 = test system: MCF7
Hs-578T = test system: Hs-578T
SF-268 = test system: SF-268
MDA-N = test system: MDA-N
NCI-H460 = test system: NCI-H460
HOP-92 = test system: HOP-92
CCRF-CEM = test system: CCRF-CEM
SF-539 = test system: SF-539
M14 = test system: M14
SK-OV-3 = test system: SK-OV-3
A549 = test system: A549

For `CNc1nc(=S)[nH]c2sc3c(c12)CCCC3`, the GI50 (IGROV-1) was > 75 µM (inactive), the GI50 (SK-MEL-5) was > 75 µM (inactive) and the GI50 (SN12C) was > 75 µM (inactive). The GI50 (SF-295) was > 75 µM (inactive), the GI50 (NCI-H522) was > 75 µM (inactive) and the GI50 (UACC-257) was > 75 µM (inactive). For the same molecule, the GI50 (CAKI-1) was > 75 µM (inactive), the GI50 (DU-145) was > 75 µM (inactive) and the GI50 (RXF 393) was > 75 µM (inactive). The GI50 (HT-29) was > 75 µM (inactive), the GI50 (NCI-H23) was > 75 µM (inactive) and the GI50 (UACC-62) was > 75 µM (inactive). The GI50 (SR) was > 75 µM (inactive), the GI50 (SW-620) was > 75 µM (inactive) and the GI50 (OVCAR-5) was > 75 µM (inactive). The GI50 (T47D) was > 75 µM (inactive), the GI50 (SK-MEL-2) was > 75 µM (inactive) and the GI50 (ACHN) was > 75 µM (inactive). The GI50 (NCI-H226) was > 75 µM (inactive), the GI50 (HCT-116) was > 75 µM (inactive) and the GI50 (EKVX) was 45.1 µM (inactive). For the same molecule, the GI50 (RPMI-8226) was > 75 µM (inactive), the GI50 (UO-31) was 67 µM (inactive) and the GI50 (KM12) was > 75 µM (inactive). The GI50 (PC-3) was > 75 µM (inactive), the GI50 (K562) was > 75 µM (inactive) and the GI50 (SNB-19) was > 75 µM (inactive). The GI50 (OVCAR-4) was > 75 µM (inactive), the GI50 (U-251) was > 75 µM (inactive) and the GI50 (MDA-MB-231) was > 75 µM (inactive). The GI50 (HCT-15) was > 75 µM, the GI50 (786-0) was > 75 µM (inactive) and the GI50 (MDA-MB-435) was > 75 µM (inactive). For the same molecule, the GI50 (SNB-75) was > 75 µM (inactive), the GI50 (BT-549) was > 75 µM (inactive) and the GI50 (A498) was > 75 µM (inactive). For the same molecule, the GI50 (NCI/ADR-RES) was > 75 µM (inactive), the GI50 (MOLT-4) was > 75 µM (inactive) and the GI50 (HL-60) was > 75 µM (inactive). The GI50 (OVCAR-3) was > 75 µM (inactive), the GI50 (LOX IMVI) was > 75 µM (inactive) and the GI50 (COLO 205) was > 75 µM (inactive). The GI50 (TK-10) was > 75 µM (inactive), the GI50 (OVCAR-8) was > 75 µM (inactive) and the GI50 (Malme-3M) was > 75 µM (inactive). The GI50 (SK-MEL-28) was > 75 µM (inactive), the GI50 (HCC 2998) was > 75 µM (inactive) and the GI50 (HOP-62) was > 75 µM (inactive). For the same molecule, the GI50 (MCF7) was > 75 µM (inactive), the GI50 (Hs-578T) was > 75 µM (inactive) and the GI50 (SF-268) was > 75 µM (inactive).
For `Cn1/c(=N\S(=O)(=O)c2ccccc2)[nH]c2ccccc21`, the GI50 (IGROV-1) was > 100 µM (inactive), the GI50 (SK-MEL-5) was > 100 µM (inactive) and the GI50 (MDA-N) was > 100 µM (inactive). The GI50 (SN12C) was > 100 µM (inactive), the GI50 (SF-295) was > 100 µM (inactive) and the GI50 (NCI-H522) was > 100 µM (inactive). For the same molecule, the GI50 (UACC-257) was > 100 µM (inactive), the GI50 (CAKI-1) was > 100 µM (inactive) and the GI50 (NCI-H460) was > 100 µM (inactive). The GI50 (DU-145) was > 100 µM (inactive), the GI50 (RXF 393) was > 100 µM (inactive) and the GI50 (HT-29) was > 100 µM (inactive). For the same molecule, the GI50 (NCI-H23) was > 100 µM (inactive), the GI50 (UACC-62) was > 100 µM (inactive) and the GI50 (HOP-92) was > 100 µM (inactive). The GI50 (CCRF-CEM) was > 100 µM (inactive), the GI50 (SR) was > 100 µM (inactive) and the GI50 (SW-620) was > 100 µM (inactive). The GI50 (OVCAR-5) was > 100 µM (inactive), the GI50 (T47D) was > 100 µM (inactive) and the GI50 (SF-539) was > 100 µM (inactive). For the same molecule, the GI50 (ACHN) was > 100 µM (inactive), the GI50 (NCI-H226) was > 100 µM (inactive) and the GI50 (HCT-116) was > 100 µM (inactive). For the same molecule, the GI50 (EKVX) was > 100 µM (inactive), the GI50 (RPMI-8226) was > 100 µM (inactive) and the GI50 (UO-31) was > 100 µM (inactive). For the same molecule, the GI50 (KM12) was > 100 µM (inactive), the GI50 (K562) was > 100 µM (inactive) and the GI50 (SNB-19) was > 100 µM (inactive). The GI50 (M14) was > 100 µM (inactive), the GI50 (OVCAR-4) was > 100 µM (inactive) and the GI50 (U-251) was > 100 µM (inactive). For the same molecule, the GI50 (MDA-MB-231) was > 100 µM (inactive), the GI50 (HCT-15) was > 100 µM and the GI50 (786-0) was > 100 µM (inactive). For the same molecule, the GI50 (MDA-MB-435) was > 100 µM (inactive), the GI50 (SNB-75) was > 100 µM (inactive) and the GI50 (BT-549) was > 100 µM (inactive). For the same molecule, the GI50 (A498) was > 100 µM (inactive), the GI50 (SK-OV-3) was > 100 µM (inactive) and the GI50 (NCI/ADR-RES) was 91.8 µM (inactive). For the same molecule, the GI50 (MOLT-4) was > 100 µM (inactive), the GI50 (HL-60) was > 100 µM (inactive) and the GI50 (COLO 205) was > 100 µM (inactive). The GI50 (TK-10) was > 100 µM (inactive), the GI50 (OVCAR-8) was > 100 µM (inactive) and the GI50 (A549) was > 100 µM (inactive). The GI50 (Malme-3M) was > 100 µM (inactive), the GI50 (SK-MEL-28) was > 100 µM (inactive) and the GI50 (HCC 2998) was > 100 µM (inactive). The GI50 (MCF7) was > 100 µM (inactive), the GI50 (Hs-578T) was > 100 µM (inactive) and the GI50 (SF-268) was 58.6 µM (inactive).
For `Nc1cccc(/C=C/CN2CCN(CCOC(c3ccccc3)c3ccccc3)CC2)c1`, the GI50 (IGROV-1) was 16.3 µM (inactive), the GI50 (SK-MEL-5) was 12.6 µM (inactive) and the GI50 (SN12C) was 16.8 µM (inactive). For the same molecule, the GI50 (SF-295) was 17.4 µM (inactive), the GI50 (NCI-H522) was 13.9 µM (inactive) and the GI50 (UACC-257) was 15.9 µM (inactive). For the same molecule, the GI50 (CAKI-1) was 19.8 µM (inactive), the GI50 (NCI-H460) was 13.6 µM (inactive) and the GI50 (DU-145) was 13.6 µM (inactive). The GI50 (RXF 393) was 12.3 µM (inactive), the GI50 (HT-29) was 3.15 µM (inactive) and the GI50 (NCI-H23) was 16.1 µM (inactive). For the same molecule, the GI50 (UACC-62) was 17.4 µM (inactive), the GI50 (HOP-92) was 12.6 µM (inactive) and the GI50 (CCRF-CEM) was 9.98 µM (inactive). The GI50 (SR) was 4.61 µM (inactive), the GI50 (SW-620) was 15.9 µM (inactive) and the GI50 (OVCAR-5) was 16 µM (inactive). For the same molecule, the GI50 (T47D) was 8 µM (inactive), the GI50 (SK-MEL-2) was 17.7 µM (inactive) and the GI50 (SF-539) was 16.7 µM (inactive). For the same molecule, the GI50 (ACHN) was 17.9 µM (inactive), the GI50 (NCI-H226) was 21.2 µM (inactive) and the GI50 (HCT-116) was 12.5 µM (inactive). The GI50 (EKVX) was 16.4 µM (inactive), the GI50 (RPMI-8226) was 3 µM (inactive) and the GI50 (UO-31) was 13.6 µM (inactive). The GI50 (KM12) was 11.2 µM (inactive), the GI50 (PC-3) was 14.8 µM (inactive) and the GI50 (K562) was 3.11 µM (inactive). For the same molecule, the GI50 (SNB-19) was 15.7 µM (inactive), the GI50 (M14) was 12.8 µM (inactive) and the GI50 (OVCAR-4) was 13.2 µM (inactive). The GI50 (U-251) was 14.6 µM (inactive), the GI50 (MDA-MB-231) was 15 µM (inactive) and the GI50 (HCT-15) was 12.8 µM. For the same molecule, the GI50 (786-0) was 14.8 µM (inactive), the GI50 (MDA-MB-435) was 14.3 µM (inactive) and the GI50 (SNB-75) was 10.5 µM (inactive). For the same molecule, the GI50 (BT-549) was 16.1 µM (inactive), the GI50 (A498) was 18 µM (inactive) and the GI50 (SK-OV-3) was 14.1 µM (inactive). For the same molecule, the GI50 (NCI/ADR-RES) was 14.3 µM (inactive), the GI50 (MOLT-4) was 3.54 µM (inactive) and the GI50 (HL-60) was 5.05 µM (inactive). The GI50 (OVCAR-3) was 15.6 µM (inactive), the GI50 (LOX IMVI) was 15.6 µM (inactive) and the GI50 (COLO 205) was 6.03 µM (inactive). The GI50 (TK-10) was 15.8 µM (inactive), the GI50 (OVCAR-8) was 16 µM (inactive) and the GI50 (A549) was 15.1 µM (inactive). For the same molecule, the GI50 (Malme-3M) was 18.2 µM (inactive), the GI50 (SK-MEL-28) was 14 µM (inactive) and the GI50 (HCC 2998) was 3.52 µM (inactive). The GI50 (HOP-62) was 13.8 µM (inactive), the GI50 (MCF7) was 13.8 µM (inactive) and the GI50 (Hs-578T) was 21.8 µM (inactive). The GI50 (SF-268) was 17.7 µM (inactive).
